Measured values taken from PubChem BioAssay AID1963963 (Molecular Pharmacology Branch, DTP, NCI, 2024).
pIC50: −log10 of the molar value.

Tested on: 958667-338-R-J2-PDC tumor spheroids viability
Experiment: Anticancer human tumor 958667-338-R-J2-PDC patient-derived colon adenocarcinoma cell line growth inhibition [PI3K]
Settings: spheroids with HUVEC and MSC; for pIC50: curve of first compound; for viability, T/C: stronger effect = lower value
Outline: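 High-throughput combination screen: PI3K inhibitors crossed with targeted small molecules on complex spheroids of tumor cells, HUVEC and MSCs at 37 degrees C, 5% CO2. Top concentration was at or near clinical Cmax (otherwise 10 microM), with half-log decrements.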

[1] = second compound 0.0316 µM, first compound 0.0316 µM
[2] = second compound 0.0316 µM, first compound 0.1 µM
[3] = second compound 0.1 µM, first compound 0.0316 µM
[4] = second compound 0.1 µM, first compound 0.1 µM
[5] = second compound 0.316 µM, first compound 0.0316 µM
[6] = second compound 0.316 µM, first compound 0.1 µM
[7] = second compound 1 µM, first compound 0.0316 µM
[8] = second compound 1 µM, first compound 0.1 µM
[9] = second compound 3.16 µM, first compound 0.0316 µM
[10] = second compound 3.16 µM, first compound 0.1 µM
[11] = second compound 10 µM, first compound 0.0316 µM
[12] = second compound 10 µM, first compound 0.1 µM
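Note: spheroids exposed to compounds for seven days before readout.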

CC(C)n1nc(-c2ccc3oc(N)nc3c2)c2c(N)ncnc21 + Cc1nc(NC(=O)N2CCCC2C(N)=O)sc1-c1ccnc(C(C)(C)C(F)(F)F)c1
pIC50 (second compound 0.0316 µM): 7.21
pIC50 (second compound 0.1 µM): 7.22
pIC50 (second compound 0.316 µM): 7.23
pIC50 (second compound 1 µM): 7.38
pIC50 (second compound 3.16 µM): 7.52
pIC50 (second compound 10 µM): 8.66
viability, T/C (second compound 0.0316 µM, first compound 0.000316 µM): 94%
viability, T/C (second compound 0.0316 µM, first compound 0.001 µM): 91.7%
viability, T/C (second compound 0.0316 µM, first compound 0.00316 µM): 80.9%
viability, T/C (second compound 0.0316 µM, first compound 0.01 µM): 77.8%
viability, T/C [1]: 61.1%
viability, T/C [2]: 41.4%
viability, T/C (second compound 0.1 µM, first compound 0.000316 µM): 102%
viability, T/C (second compound 0.1 µM, first compound 0.001 µM): 85.8%
viability, T/C (second compound 0.1 µM, first compound 0.00316 µM): 108%
viability, T/C (second compound 0.1 µM, first compound 0.01 µM): 73.7%
viability, T/C [3]: 76.5%
viability, T/C [4]: 33.1%
viability, T/C (second compound 0.316 µM, first compound 0.000316 µM): 77.3%
viability, T/C (second compound 0.316 µM, first compound 0.001 µM): 89.3%
viability, T/C (second compound 0.316 µM, first compound 0.00316 µM): 80.5%
viability, T/C (second compound 0.316 µM, first compound 0.01 µM): 82.2%
viability, T/C [5]: 71.5%
viability, T/C [6]: 32%
viability, T/C (second compound 1 µM, first compound 0.000316 µM): 70%
viability, T/C (second compound 1 µM, first compound 0.001 µM): 68.1%
viability, T/C (second compound 1 µM, first compound 0.00316 µM): 74.5%
viability, T/C (second compound 1 µM, first compound 0.01 µM): 79%
viability, T/C [7]: 56%
viability, T/C [8]: 31.4%
viability, T/C (second compound 3.16 µM, first compound 0.000316 µM): 72%
viability, T/C (second compound 3.16 µM, first compound 0.001 µM): 73.8%
viability, T/C (second compound 3.16 µM, first compound 0.00316 µM): 73.2%
viability, T/C (second compound 3.16 µM, first compound 0.01 µM): 57.5%
viability, T/C [9]: 52%
viability, T/C [10]: 24.3%
viability, T/C (second compound 10 µM, first compound 0.000316 µM): 56%
viability, T/C (second compound 10 µM, first compound 0.001 µM): 51.5%
viability, T/C (second compound 10 µM, first compound 0.00316 µM): 39.8%
viability, T/C (second compound 10 µM, first compound 0.01 µM): 52.9%
viability, T/C [11]: 34.3%
viability, T/C [12]: 21.1%

CCCS(=O)(=O)Nc1ccc(F)c(C(=O)c2c[nH]c3ncc(-c4ccc(Cl)cc4)cc23)c1F + Cc1nc(NC(=O)N2CCCC2C(N)=O)sc1-c1ccnc(C(C)(C)C(F)(F)F)c1
pIC50 (second compound 0.0316 µM): 5.24
pIC50 (second compound 0.1 µM): 5.26
pIC50 (second compound 0.316 µM): 5.29
pIC50 (second compound 1 µM): 5.18
pIC50 (second compound 3.16 µM): 5.33
pIC50 (second compound 10 µM): 5.36
viability, T/C [1]: 106%
viability, T/C [2]: 87.6%
viability, T/C (second compound 0.0316 µM, first compound 0.316 µM): 89.8%
viability, T/C (second compound 0.0316 µM, first compound 1 µM): 86.1%
viability, T/C (second compound 0.0316 µM, first compound 3.16 µM): 111%
viability, T/C (second compound 0.0316 µM, first compound 10 µM): 7.09%
viability, T/C [3]: 96.3%
viability, T/C [4]: 91.9%
viability, T/C (second compound 0.1 µM, first compound 0.316 µM): 82.2%
viability, T/C (second compound 0.1 µM, first compound 1 µM): 77.2%
viability, T/C (second compound 0.1 µM, first compound 3.16 µM): 90.2%
viability, T/C (second compound 0.1 µM, first compound 10 µM): 9.01%
viability, T/C [5]: 90.7%
viability, T/C [6]: 78.6%
viability, T/C (second compound 0.316 µM, first compound 0.316 µM): 70.8%
viability, T/C (second compound 0.316 µM, first compound 1 µM): 77.7%
viability, T/C (second compound 0.316 µM, first compound 3.16 µM): 85.5%
viability, T/C (second compound 0.316 µM, first compound 10 µM): 8.6%
viability, T/C [7]: 79.5%
viability, T/C [8]: 84.5%
viability, T/C (second compound 1 µM, first compound 0.316 µM): 86%
viability, T/C (second compound 1 µM, first compound 1 µM): 70.8%
viability, T/C (second compound 1 µM, first compound 3.16 µM): 80.5%
viability, T/C (second compound 1 µM, first compound 10 µM): 32.7%
viability, T/C [9]: 57%
viability, T/C [10]: 66.4%
viability, T/C (second compound 3.16 µM, first compound 0.316 µM): 75.9%
viability, T/C (second compound 3.16 µM, first compound 1 µM): 49.3%
viability, T/C (second compound 3.16 µM, first compound 3.16 µM): 74.3%
viability, T/C (second compound 3.16 µM, first compound 10 µM): 20.7%
viability, T/C [11]: 58.1%
viability, T/C [12]: 66.9%
viability, T/C (second compound 10 µM, first compound 0.316 µM): 60.8%
viability, T/C (second compound 10 µM, first compound 1 µM): 67.9%
viability, T/C (second compound 10 µM, first compound 3.16 µM): 74.1%
viability, T/C (second compound 10 µM, first compound 10 µM): 9.34%
